Among the data in ChEMBL document CHEMBL6087387, “Carbon Monoxide as a Potential Therapeutic Agent: A Molecular Analysis of Its Safety Profiles” (J Med Chem, 2024) are concentration values, retold here.

The nature of data set [1]: Plasma concentration in rat at 250 mg/kg, po after 2 hrs. In kind it is ADME, organism-based.
Data set [2] is described as follows: Plasma concentration in rat at 100 mg/kg, po after 2 hrs. In kind it is ADME, organism-based.
A short description of data set [3]: Plasma concentration in rat at 30 mg/kg, po after 2 hrs.

On to `O=C(O)c1cn(C2CC2)c2cc(N3CCNCC3)c(F)cc2c1=O` [CIPROFLOXACIN], for which, in data set [1], the concentration at 2 h came to 3.8 µM.

Regarding `COc1cccc2c1C(=O)c1c(O)c3c(c(O)c1C2=O)C[C@@](O)(C(=O)CO)C[C@@H]3O[C@H]1C[C@H](N)[C@H](O)[C@H](C)O1` [DOXORUBICIN], the concentration at 2 h in data set [2] stood at 1150 nM. For the compound `O=c1[nH]cc(F)c(=O)[nH]1` [FLUOROURACIL], the concentration at 2 h in data set [1] worked out at 420 µM. With `COc1ccc2cc([C@H](C)C(=O)O)ccc2c1` [NAPROXEN], in data set [3], the concentration at 2 h is > 300 µM.

The compound `CC(=O)O[C@H]1C(=O)[C@@]2(C)[C@H]([C@H](OC(=O)c3ccccc3)[C@]3(O)C[C@H](OC(=O)[C@H](O)[C@@H](NC(=O)c4ccccc4)c4ccccc4)C(C)=C1C3(C)C)[C@]1(OC(C)=O)CO[C@@H]1C[C@@H]2O` [PACLITAXEL] gave a concentration at 2 h in data set [2] of 3100 nM.
